Laboratory results: US5344846A, “Compositions and methods for inhibiting deoxyhypusine synthase and the growth of cells” (The United States of America as represented by the …, priority 1992, dated 1994)
“Also recorded” adds a separate entry of the source.

Columns and labels:
[1] = molecular target: T1, deoxyhypusine synthase from rat testis (Rattus norvegicus, UniProt Q6AY53); details: cited from earlier work
T1 construct: as catalyzed by deoxyhypusine synthase from rat testis; from tissue; host or cells: rat testis
T1 sequence (Q6AY53 1-369): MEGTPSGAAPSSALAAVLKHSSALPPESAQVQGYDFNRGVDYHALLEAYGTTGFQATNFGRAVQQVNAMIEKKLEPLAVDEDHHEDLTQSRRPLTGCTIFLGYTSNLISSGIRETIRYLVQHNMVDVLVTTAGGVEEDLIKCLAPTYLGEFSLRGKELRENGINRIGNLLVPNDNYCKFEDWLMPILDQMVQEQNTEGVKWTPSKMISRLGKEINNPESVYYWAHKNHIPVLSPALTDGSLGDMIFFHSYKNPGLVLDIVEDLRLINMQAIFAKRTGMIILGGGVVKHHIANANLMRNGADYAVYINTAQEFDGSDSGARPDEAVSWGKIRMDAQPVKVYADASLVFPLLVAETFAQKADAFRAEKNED

[2] = molecular target: T2, deoxyhypusine synthase (Rattus norvegicus, UniProt Q6AY53); details: earlier publications; cited from earlier work
T2 construct: full-length homotetramer; substrate was human eIF-5A precursor expressed in E. coli
T2 sequence (Q6AY53 1-369): T1 sequence (Q6AY53 1-369)

[3] = test system: deoxyhypusine synthase from HTC cells; details: cited from earlier work; for inhibition of deoxyhypusine synthase: 20 μM inhibitor, 1 μM spermidine, precursor from DFMO-treated HTC cells
[4] = cited from earlier work
[5] = molecular target: T1, deoxyhypusine synthase from rat testis; experiment: Inhibition of deoxyhypusine synthase ([3H]deoxyhypusine formation from [3H]spermidine), IC50/Ki; assay type: biochemical; details: for inhibition of deoxyhypusine synthase (in words): pH 9.3, 37° C., 1 hour, 2.4 μM [3H]spermidine; for relative inhibitory potency (in words): comparison with parent amine, bisguanylated counterpart or another inhibitor
Method: The enzyme assay was performed as previously described (see Wolff et al. (1990) J. Biol. Chem. 265:4793-4799; and Park et al. (1991) J. Biol. Chem. 266:7988-7994). A typical assay mixture included 0.2M glycine, 1 mM dithiothreitol, 0.5 mM NAD^+, 2.4 micromolar (μM) [1,8-^3 H] spermidine, 1 μM ec-eIF-5A(Lys), 25 micrograms (μg) bovine serum albumin, and 3-15 units of enzyme in a total volume of 20 microliters (μl). Incubations were carried out at pH 9.3 and 37° C. for 1 hour. […] Percent inhibition was plotted versus log inhibitor concentration in order to obtain graphic estimates of IC50 values, i.e., the concentrations inhibiting [^3 H]deoxyhypusine production by 50%. The IC50 values reported in the tables were calculated by fitting the data points to equation 1 where x=% inhibition and I is the inhibitor concentration. [formula] The nature of the inhibition was determined by plotting reciprocal velocities of [^3 H]deoxyhypusine production against reciprocals of [^3 H]spermidine concentrations at a constant fixed level of ec-eIF-5A(Lys) (1 μM) and at set inhibitor concentrations. […] Estimates of Ki values were made by fitting the data to equation 2; wherein v is the velocity of the reaction, V is the maximum velocity, S is the substrate concentration, Km is Michaeli's constant, Ki is the inhibition constant, and I is the inhibitor concentration. [formula] All fits were performed by means of an interactive curve-fitting program, MLAB, developed and modified at the National Institutes of Health to run on an IBM personal computer.

[6] = test system: deoxyhypusine synthase; details: cited from earlier work
[7] = test system: oat seedling polyamine oxidase; details: cited from earlier work
[8] = test system: pea seedling diamine oxidase; details: cited from earlier work
[9] = molecular target: T2, deoxyhypusine synthase; experiment: Substrate property for deoxyhypusine synthase; assay type: biochemical; details: conditions similar to those for N-(3-aminopropyl)cadaverine
Method: (See Wolff et al. (1990) J. Biol. Chem. 265:4793-4799.) The Km(app) values for the substrates, spermidine, NAD^+ and eIF-5A precursor from spermidine-depleted CHO cells, have been calculated as approximately 4, 30, and 0.08 μM, respectively.
This finding is consistent with the conclusion that this lysine is the only one in the precursor that is converted to hypusine, both in cells and in the enzyme reaction in vitro.

Compound: 16-membered peptide: modeled on residues 40-55 of the human eIF-5A precursor protein and encompassing Lys^50 (IVEMSTSKTGKHGHAK; UniProt P63241 40-55, looked up, fragment)
- inhibition by precursor-related peptide [1]: only weak inhibition
- substrate or cofactor function for deoxyhypusine synthase [2]: failed to act as a substrate

Compound: NCCCNCC(F)CCN (centres unmarked) [Compound 36, 6-fluorospermidine]
- inhibition of deoxyhypusine synthase [3]: 86%
- pKa of N1-amino group [4]: 10.40
- pKa of N8-amino group [4]: 9.55
- inhibition of deoxyhypusine synthase (in words) [5]: quite strong inhibitors; also recorded: effective inhibition; also recorded: act as inhibitors

Compound: NCCCNCC(F)(F)CCN [Compound 37, 6,6-difluorospermidine]
- inhibition of deoxyhypusine synthase [3]: 90%
- Ki (in words) ([3]; HTC cell enzyme): very close to that for 1,3-diaminopropane and to the Km value for spermidine
- pKa of N1-amino group [4]: 10.34
- pKa of N8-amino group [4]: 9.29
- inhibition of deoxyhypusine synthase (in words) [5]: quite strong inhibitors; also recorded: effective inhibition; also recorded: act as inhibitors

Compound: NCCCNCCC(F)(F)CN [Compound 38, 7,7-Difluorospermidine]
- inhibition of deoxyhypusine synthase [3]: 0%
- pKa of N8-amino group [4]: 6.64
- inhibition of deoxyhypusine synthase (in words) [5]: devoid of inhibitory activity; also recorded: no inhibition

Compound: N=C(N)NCCCCCCCCNCCCCCCCCNC(=N)N [Compound 40, guazatine]
- inhibition of deoxyhypusine synthase (literature) [6]: strong inhibitor
- inhibition of oat seedling polyamine oxidase [7]: known to inhibit
- inhibition of pea seedling diamine oxidase [8]: known to inhibit

Compound: N=C(N)NCCCNCCCCN [Compound 51, N^1 -guanylspermidine]
- substrate property for deoxyhypusine synthase [9]: Neither displayed any detectable substrate property
- relative inhibitory potency (in words) [5]: exceeded bisguanylated spermidine (compound 53) as inhibitors; also recorded: uniformly more efficient inhibition
- inhibition of deoxyhypusine synthase (in words) [5]: high affinities for the enzyme

Compound: N=C(N)NCCCCNCCCN [Compound 52, N^8 -guanylspermidine]
- substrate property for deoxyhypusine synthase [9]: Neither displayed any detectable substrate property; also recorded: If it were, it would function as a substrate which it does not
- relative inhibitory potency (in words) [5]: exceeded bisguanylated spermidine (compound 53) as inhibitors; also recorded: uniformly more efficient inhibition; also recorded: somewhat more effective inhibitor than N^1 -guanylspermidine (compound 51)
- inhibition of deoxyhypusine synthase (in words) [5]: high affinities for the enzyme
